One series relates to SARS-CoV-2-WA1 strain. Put plainly: Huh7 cellular infectivity assay with SARS-CoV-2 (high content bioimaging). It is filed as cell-based. The settings on record: for efficacy in preventing SARS-CoV-2 infection: Huh-7 cells, normalized to infected and uninfected vehicle wells. As for the experimental part:
(§1) FIGS. 3A-D. Cysteamine efficacy in the Huh7 cellular infectivity assay with SARS-CoV-2-WA1 strain. Cells are infected at 0.2 MOI and are incubated for 48 hours to allow for the initial infection and propagation to surrounding cells. […] All concentrations of cysteamine (50, 20, 8, 3, 1.5 micromolar) tested were non-cytotoxic indicating an acceptable therapeutic index.
Experiments were conducted during development of embodiments herein using a fully developed high-content screening pipeline to screen approved drugs against SARS Cov-2, the causative agent of COVID-19. A high throughput screen of FDA-approved drugs was conducted to determine the efficacy in a SARS-CoV-2 infectivity assay. This high content bioimaging-based assay has proven to be highly robust and informative, and clearly differentiates between infected and uninfected cells (FIG. 2). This high-content screen identifies individual agents effective in reducing viral infectivity or replication by imaging individual SARS Cov-2 infected cells. A screen of 1,200 compounds was conducted through the validated assay platform. Remdesivir, a viral replication inhibitor, was selected as a positive control, which results in 100% efficacy.
Cysteamine was evaluated for its antiviral effects at 5 doses with 9 replicates at each dose for a total of 45 independent experiments. Automated image analysis was performed to quantitate the number and percentage of infected cells and that was normalized to the infected and vehicle (DMSO) treated wells and the uninfected and vehicle treated wells representing 0-100% efficacy, as shown on the y-axis dose response plot for cysteamine anti-SARS-CoV-2 (FIG. 3).

The subject of the next series is Huh7 cells. Put plainly: Cytotoxicity in the Huh7 infectivity assay. Format: cell-based. The following applies: 50, 20, 8, 3, 1.5 micromolar. As to the method:
as §1

The subject of series [1] is HTLV-IIIB strain of HIV-1. The settings on record: 100 μM; CEM cells; cited from earlier work.
Series [2] deals with HIV-1 (4 primary isolates and 2 laboratory strains). The settings on record: cited from earlier work.
The test system of the next series is epithelial fibroblasts. The following applies: concentrations up to 10 μM; cited from earlier work.
The conditions of series [3]: aqueous 0.1% and 0.5% (10 mM and 50 mM); cited from earlier work.
The conditions of series [4]: aqueous 0.1% and 0.5%, topical; cited from earlier work.
Another series relates to SARS-CoV-2 WA wild type. The experiment in a line: Virus pre-incubation, plaque formation in TMPRSS cells. The following applies: Severe acute respiratory syndrome coronavirus 2, 2 h; 5 mM, 120 min incubation. Format: cell-based.

Counter-ions that a name gives are not always drawn. Like-named read-outs stand apart in the source and are kept apart here.

As to 2-aminoethanethiol [cysteamine], the “viral infection relative to the negative control” value with SARS-CoV-2-WA1 strain (8 micromolar, Huh7 cells, 0.2 MOI, 48 hours, syncytia present) is “reduced viral infection relative to the negative control”. In addition, the “infected cells / nucleocapsid staining” value in the series with SARS-CoV-2-WA1 strain (20 micromolar, Huh7 cells, 0.2 MOI, 48 hours) is given as “small percentage of infected cells that have a diminished nucleocapsid staining”. The “elimination of SARS-CoV-2 infection” value in the series on SARS-CoV-2-WA1 strain (50 micromolar, Huh7 cells, 0.2 MOI, 48 hours) was determined as 100%. The EC50 in the series with SARS-CoV-2-WA1 strain (Huh7 cells, 0.2 MOI, 48 hours, read-out: EC50 (concentration at 50% effect)) is around 5 µM. Moreover, in the series on SARS-CoV-2-WA1 strain, the “efficacy in preventing SARS-CoV-2 infection” value was around 100%. Besides, in the series with Huh7 cells, the cytotoxicity result is given as “non-cytotoxic”. Besides, the inhibition of cytotoxicity in series [1] is 100%. Moreover, in series [2] (200 μM, lymphocytes), the viral inhibition entry is recorded as “More than 90%”. Further, the viral inhibition result in series [2] (100 microM, macrophages) is given as “More than 90%”. Also, the “antiviral effect of combination” value in series [2] (in conjunction with zidovudine or didanosine, without concomitant increases in toxicity) was “additive antiviral effect”. Besides, the “effect on growth rate” value in the series on epithelial fibroblasts is listed as “no effect on growth rate”. Besides, the “safety via the Draize test” value in series [3] is “safe”. Also, in series [4], the “reduction of corneal cystine crystals” value is listed as “effective in reducing the cystine crystals” and the “tolerability in chronic use” value is “well-tolerated”.
On to `CCC(CC)COC(=O)[C@H](C)N[P@](=O)(OC[C@H]1O[C@@](C#N)(c2ccc3c(N)ncnn23)[C@H](O)[C@@H]1O)Oc1ccccc1` [Remdesivir], for which the “efficacy in preventing SARS-CoV-2 infection” value in the series with SARS-CoV-2-WA1 strain worked out at 100%.
A word on the inhibition: it is how much of the control response was suppressed. In turn, `NCCS` [cysteamine HCl] came in with an inhibition at 5000 µM in the series on SARS-CoV-2 WA wild type of 85 to 95%.

These data come from patent US12527753B2, “Cysteamine for the treatment, mitigation and prevention of coronaviral, e.g., SARS-CoV-2, infections” (The Regents of the University of Michigan, priority 2020, dated 2026).
